Measurements as given in patent publication US7786109B2, “Tricyclic amide derivatives as modulators of H3 receptors” (Hoffmann-La Roche Inc., priority 2005, dated 2010).

These molecules were tested against T1, histamine 3 receptor (H3R) (Homo sapiens, UniProt Q9Y5N1) (assay: Binding assay with 3H-(R)α-methylhistamine (competition binding, membranes of the human HR3-CHO cell line)). Details: competition against 3H(R)α-Methylhistamine (1 nM), Ki calculated from IC50 by Cheng-Prusoff.
T1 construct: expressed in transfected cells; host or cells: CHO cells (HR3-CHO cell line), membranes
T1 sequence (Q9Y5N1 whole entry): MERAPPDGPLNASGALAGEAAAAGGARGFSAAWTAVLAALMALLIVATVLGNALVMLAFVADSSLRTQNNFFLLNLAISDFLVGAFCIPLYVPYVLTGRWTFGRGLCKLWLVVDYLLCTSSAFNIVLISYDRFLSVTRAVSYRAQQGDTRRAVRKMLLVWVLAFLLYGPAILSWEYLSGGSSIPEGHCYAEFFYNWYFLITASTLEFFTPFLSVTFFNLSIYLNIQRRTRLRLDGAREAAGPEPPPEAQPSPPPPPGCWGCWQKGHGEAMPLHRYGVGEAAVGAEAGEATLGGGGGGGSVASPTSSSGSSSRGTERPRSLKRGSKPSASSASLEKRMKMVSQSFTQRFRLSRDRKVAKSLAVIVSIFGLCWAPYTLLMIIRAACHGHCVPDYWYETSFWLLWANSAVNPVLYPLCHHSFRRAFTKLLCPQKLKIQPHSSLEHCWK
Procedure: Binding assay with ^3H—(R)α-methylhistamine
Saturation binding experiments were performed using HR3-CHO membranes prepared as described in Takahashi, K, Tokita, S., Kotani, H. (2003) J. Pharmacol. Exp. Therapeutics 307, 213-218.
An appropriate amount of membrane (60 to 80 μg protein/well) was incubated with increasing concentrations of ^3H(R)α-Methylhistamine di-hydrochloride (0.10 to 10 nM). Non specific binding was determined using a 200 fold excess of cold (R)α-Methylhistamine dihydrobromide (500 nM final concentration). The incubation was carried out at room temperature (in deep-well plates shaking for three hours). The final volume in each well was 250 μl. The incubation was followed by rapid filtration on GF/B filters (pre-soaked with 100 μl of 0.5% PEI in Tris 50 mM shaking at 200 rpm for two hours). The filtration was made using a cell-harvester and the filter plates were then washed five times with ice cold washing buffer containing 0.5 M NaCl. After harvesting, the plates were dried at 55° C. for 60 min, then we added scintillation fluid (Microscint 40, 40 microl in each well) and the amount of radioactivity on the filter was determined in Packard top-counter after shaking the plates for two hours at 200 rpm at room temperature.
Binding Buffer: 50 mM Tris-HCl pH 7.4 and 5 mM MgCl2×6H2O pH 7.4. Washing Buffer: 50 mM Tris-HCl pH 7.4 and 5 mM MgCl2×6H2O and 0.5 M NaCl pH 7.4.
Indirect measurement of affinity of H3R inverse agonists: twelve increasing concentrations (ranging from 10 μM to 0.3 nM) of the selected compounds were always tested in competition binding experiments using membrane of the human HR3-CHO cell line. An appropriate amount of protein, e.g. approximately 500 cpm binding of RAMH at Kd, were incubated for 1 hour at room temperature in 250 μl final volume in 96-well plates in presence of ^3H(R)α-Methylhistamine (1 nM final concentration=Kd). […]
All compounds were tested at a single concentration in duplicates. […] Ki's were calculated from IC50 based on Cheng-Prusoff equation (Cheng, Y, Prusoff, W H (1973) Biochem Pharmacol 22, 3099-3108).

SMILES | Ki [nM]
C[C@@H]1CCCN1CCCOc1ccc2c(c1)cc1n2CCNC1=O [Example 5, 8-[3-((R)-2-Methyl-pyrrolidin-1-yl)-propoxy]-3,4-dihydro-2H-pyrazino[1,2-a]indol-1-one] | 6.5
CC(C)N1CCC(Oc2ccc3c(c2)cc2n3CCCN(CC3CC3)C2=O)CC1 [Example 78, 2-Cyclopropylmethyl-9-(1-isopropyl-piperidin-4-yloxy)-2,3,4,5-tetrahydro-[1,4]diazepino[1,2-a]indol-1-one] | 17.1
C[C@H]1CCCN1CCCOc1cnc2c(c1)cc1n2CCN(CC(F)(F)F)C1=O [Example 92, 7-[3-((S)-2-Methyl-pyrrolidin-1-yl)-propoxy]-2-(2,2,2-trifluoro-ethyl)-3,4-dihydro-2H-2,4a,5-triaza-fluoren-1-one] | 28.8
